Assay results reported in US8785463B2, “GPR 119 agonists” (Cadila Healthcare Limited, priority 2010, dated 2014).

Molecular target: T1, human GPR 119 receptor (Homo sapiens, UniProt Q8TDV5)
T1 construct: expressed in transfected cells
T1 sequence (Q8TDV5 1-335): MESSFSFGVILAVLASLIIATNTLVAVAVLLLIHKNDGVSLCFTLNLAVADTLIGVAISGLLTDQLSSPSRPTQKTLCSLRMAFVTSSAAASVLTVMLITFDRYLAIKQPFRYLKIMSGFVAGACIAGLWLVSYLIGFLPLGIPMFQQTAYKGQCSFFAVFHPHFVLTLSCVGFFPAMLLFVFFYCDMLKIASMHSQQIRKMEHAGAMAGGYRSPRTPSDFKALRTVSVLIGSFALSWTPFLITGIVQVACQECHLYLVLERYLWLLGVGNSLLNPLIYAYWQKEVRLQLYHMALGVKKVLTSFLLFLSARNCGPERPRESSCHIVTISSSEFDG
Test: cAMP assay in stable cell line expressing recombinant human GPR 119 receptor
Assay type: cell-based
Conditions: DMSO = 1
Description: A stable cell line expressing recombinant human GPR 119 receptor was established and used to investigate the efficacy of the compounds of the invention based on the intracellular levels of cyclic AMP (cAMP) using commercially available cAMP kits.

Structure (SMILES)	Fold increase in cyclic AMP with respective to DMSO (10 nM compound) [fold]	Fold increase in cyclic AMP with respective to DMSO (100 nM compound) [fold]	Fold increase in cyclic AMP with respective to DMSO (1 uM compound) [fold]
Cc1c(Oc2cccc(/C=C3\SC(=O)NC3=O)c2)ncnc1OC1CCN(c2nc(C(C)C)no2)CC1 [Example 25, (Z)-5-(3-((6-((1-(3-Isopropyl-1,2,4-oxadiazol-5-yl)piperidin-4-yl)oxy)-5-methylpyrimidin-4-yl)oxy)benzylidene)thiazolidine-2,4-dione]	3.32	5.81	1.39
O=C1NC(=O)/C(=C/c2cccc(Oc3cc(OC4CCN(c5ncccn5)CC4)ncn3)c2)S1 [Example 42, (Z)-5-(3-((6-((1-(Pyrimidin-2-yl)piperidin-4-yl)oxy)pyrimidin-4-yl)oxy)benzylidene)thiazolidine-2,4-dione]	0.65	1.27	3.10
O=C1NC(=O)/C(=C/c2ccc(Oc3cc(OC4CCN(Cc5ccccc5)CC4)ncn3)cc2)S1 [Example 37, (Z)-5-(4-((6-((1-Benzylpiperidin-4-yl)oxy)pyrimidin-4-yl)oxy)benzylidene)thiazolidine-2,4-dione]	0.97	1.47	2.07
CCc1cnc(N2CCC(Oc3cc(Oc4cccc(/C=C5\SC(=O)NC5=O)c4)ncn3)CC2)nc1 [Example 55]	1.18	2.86	4.77
CC(C)COC(=O)N1CCC(Oc2cc(Oc3ccc(/C=C4\SC(=O)NC4=O)cc3)ncn2)CC1 [Example 34, (Z)-Isobutyl 4-((6-(4-((2,4-dioxothiazolidin-5-ylidene)methyl)phenoxy)pyrimidin-4-yl)oxy)piperidine-1-carboxylate]	0.73	1.09	2.22
CC(=O)CN1C(=O)S/C(=C\c2ccc(Oc3cc(OC4CCN(C(=O)OC(C)(C)C)CC4)ncn3)cc2)C1=O [Example 46, (Z)-tert-Butyl 4-((6-(4-((2,4-dioxo-3-(2-oxopropyl)thiazolidin-5-ylidene)methyl)phenoxy)pyrimidin-4-yl)oxy)piperidine-1-carboxylate]	1.58	1.89	5.45
COc1cc(/C=C2\SC(=O)NC2=O)ccc1Oc1cc(OC2CCN(C(=O)OC(C)(C)C)CC2)ncn1 [Example 40, (Z)-tert-Butyl 4-((6-(4-((2,4-dioxothiazolidin-5-ylidene)methyl)-2-methoxyphenoxy)pyrimidin-4-yl)oxy)piperidine-1-carboxylate]	0.87	1.21	1.66
Cc1c(Oc2cccc(/C=C3\SC(=O)NC3=O)c2)ncnc1OC1CCN(C(=O)OCc2ccccc2)CC1 [Example 50, (Z)-Benzyl 4-((6-(3-((2,4-dioxothiazolidin-5-ylidene)methyl)phenoxy)-5-methylpyrimidin-4-yl)oxy)piperidine-1-carboxylate]	1.73	4.66	5.74
CCOC(=O)N1CCC(Oc2ncnc(Oc3cccc(/C=C4\SC(=O)N(C)C4=O)c3)c2C)CC1 [Example 4, (Z)-Ethyl-4-((5-methyl-6-(3-((3-methyl-2,4-dioxothiazoldin-5-ylidene)methy 1)phenoxy)pyrimidin-4-yl)oxy)piperidine-1-carboxylate]	4.52	4.95	7.17
Cc1c(OCC2CCCN2C(=O)OC(C)(C)C)ncnc1Oc1ccc(/C=C2\SC(=O)NC2=O)cc1 (stereo not drawn) [Example 18, (Z)-tert-Butyl 2-(((6-(4-((2,4-dioxothiazolidin-5-ylidene)methyl)phenoxy)-5-methylpyrimidin-4-yl)oxy)methyl)pyrrolidine-1-carboxylate]	1.50	2.57	4.03
Cc1c(Oc2cccc(/C=C3\SC(=O)NC3=O)c2)ncnc1OC1CCN(C(=O)OCC(C)C)CC1 [Example 22, (Z)-iso-Butyl 4-((6-(3-((2,4-dioxothiazolidin-5-ylidene)methyl)phenoxy)-5-methylpyrimidin-4-yl)oxy)piperidine-1-carboxylate]	0.95	1.82	1.66
Cc1c(Oc2ccc(/C=C3\SC(=O)NC3=O)cc2)ncnc1OC1CCN(Cc2ccccc2)CC1 [Example 38, (Z)-5-(4-((6-((1-Benzylpiperidin-4-yl)oxy)-5-methylpyrimidin-4-yl)oxy)benzylidene)thiazolidine-2,4-dione]	0.34	0.67	1.64
CCOC(=O)N1CCC(Oc2ncnc(Oc3ccc(/C=C4\SC(=O)NC4=O)cc3)c2C)CC1 [Example 14, (Z)-Ethyl 4-((6-(4-((2,4-dioxothiazolidin-5-ylidene)methyl)phenoxy)-5-methylpyrimidin-4-yl)oxy)piperidine-1-carboxylate]	1.40	2.40	6.61
CCOC(=O)N1CCC(Oc2ncnc(Oc3cccc(/C=C4\SC(=O)NC4=O)c3)c2C)CC1 [Example 20, (Z)-Ethyl 4-((6-(3-((2,4-dioxothiazolidin-5-ylidene)methyl)phenoxy)-5-methylpyrimidin-4-yl)oxy)piperidine-1-carboxylate]	0.59	2.02	2.39
COC(=O)N1CCC(Oc2ncnc(Oc3cccc(/C=C4\SC(=O)N(C(C)C)C4=O)c3)c2C)CC1 [Example 32, (Z)-Methyl 4-((6-(3-((3-isopropyl-2,4-dioxothiazolidin-5-ylidene)methyl)phenoxy)-5-methylpyrimidin-4-yl)oxy)piperidine-1-carboxylate]	0.77	0.94	1.45
Cc1c(Oc2ccc(/C=C3\SC(=O)NC3=O)cc2)ncnc1OC1CCN(C(=O)OCc2ccccc2)CC1 [Example 13, (Z)-Benzyl 4-((6-(4-((2,4-dioxothiazolidin-5-ylidene)methyl)phenoxy)-5-methylpyrimidin-4-yl)oxy)piperidine-1-carboxylate]	0.61	0.63	1.42
CC(C)(C)OC(=O)N1CCC(Oc2cc(Oc3cccc(/C=C4\SC(=O)NC4=O)c3)ncn2)CC1 [Example 19, (Z)-tert-Butyl 4-((6-(3-((2,4-dioxothiazolidin-5-ylidene)methyl)phenoxy)pyrimidin-4-yl)oxy)piperidine-1-carboxylate]	1.31	1.92	4.24
CC(C)COC(=O)N1CCC(Oc2cc(Oc3cccc(/C=C4\SC(=O)NC4=O)c3)ncn2)CC1 [Example 33, (Z)-Isobutyl 4-((6-(3-((2,4-dioxothiazolidin-5-ylidene)methyl)phenoxy)pyrimidin-4-yl)oxy)piperidine-1-carboxylate]	0.83	1.36	2.72
CCOC(=O)N1CCC(Oc2cc(Oc3cccc(/C=C4\SC(=O)NC4=O)c3)ncn2)CC1 [Example 51, (Z)-Ethyl 4-((6-(3-((2,4-dioxothiazolidin-5-ylidene)methyl)phenoxy)pyrimidin-4-yl)oxy)piperidine-1-carboxylate]	0.79	1.25	2.81
CC(C)c1noc(N2CCC(Oc3cc(Oc4ccc(/C=C5\SC(=O)NC5=O)cc4)ncn3)CC2)n1 [Example 10, (Z)-5-(4-((6-((1-(3-iso-Propyl-1,2,4-oxadiazol-5-yl)piperidin-4-yl)oxy)pyrimidin-4-yl)oxy)benzylidene)thiazolidine-2,4-dione]	1.14	2.30	5.06
Cc1c(Oc2ccc(/C=C3\SC(=O)NC3=O)cc2)ncnc1OC1CCN(C(=O)OC(C)C)CC1 [Example 16, (Z)-iso-Propyl 4-((6-(4-((2,4-dioxothiazolidin-5-ylidene)methyl)phenoxy)-5-methylpyrimidin-4-yl)oxy)piperidine-1-carboxylate]	1.91	2.54	3.17
